# Earlier results as cited in patent publication US20060078583A1, “Device for delivering an anti-microbial composition” (priority 2004, published 2006).
# Key:
# [1] = system: rhinoviral infections (colds); details: subjects who used iodine products
# rhinovirus = details: on skin
smiles,measurement,setting,value
II [iodine],number of colds versus placebo users,[1],significantly fewer colds than placebo users
same,residual anti-rhinoviral activity,rhinovirus,provides residual anti-rhinoviral activity on skin
